{"source": "patent US4800194A", "about": "“Acylphosphorotriamides useful as lipid-altering agents” (priority 1986, dated 1989)", "key": {"pseudocholinesterase": {"tested_on": "pseudocholinesterase", "assay": "Multiple dose study in hyperlipidemic guinea pigs: plasma pseudocholinesterase activity (Test Method 2, Example 29)", "assay_type": "in vivo, guinea pig", "conditions": "2.5 mg/kg i.p. once daily", "source_text": "Male Hartley guinea pigs (Elm Hill Breeding Labs., Chelmsford, MA or Charles River, Wilmington, MA) was used in all experiments unless otherwise specified. The animals were maintained on a normal diet of rabbit pellets (Purina Rabbit Chow 5321, Ralston Purina, St. Louis, MO) and water containing 0.1% ascorbic acid ad libitum. For special studies in the hyperlipidemic guinea pig model, the animals were maintained on the high cholesterol diet described in this report and water containing 0.1% ascorbic acid ad libitum.\nIndividual animals were identified by ear and cage markings. The dose of drug or placebo was adjusted daily for changes in the weight of the guinea pigs. Blood samples were collected in EDTA Vacutainers by open chest cardiac puncture under carbon dioxide anesthesia from guinea pigs which had been fasted overnight. The animals were then sacrificed by CO2 inhalation. Blood samples were centrifuged at 2000 rpm for 15 min. in an IEC centrifuge (International Equipment Co., Boston, MA) with a 240 rotor for isolation of plasma. Lipoprotein analyses of plasma were carried out on the same day as the blood collection. Assays of pseudocholinesterase activity were carried out within a week of blood collection on plasma samples which had been stored at 4° C.\nThe assay method used was based on the procedure described in Ellman, G. L., K. D. Courtney, V. Andres & R. M. Featherstone, \"A New and Rapid Colorimetric Determination of Acetylcholinesterase Activity\", Biolchemical Pharmacology, Vol. 7 (1961), pp. 88-95. Reactions were carried out at 35° C. in pH 7.2 NaH2 PO4 50 mM buffer containing 5 mM butyrylthiocholine iodide (substrate) and 0.25 mM 5,5'-dithiobis-[2-nitrobenzoic acid] (chromogen). The rate of change of absorbance at 405 nm with time was monitored by means of a Cary 16 spectrophotometer (Varian Associates, Walnut Creek, CA) or a Beckman DU-8B spectrophotometer (Beckman Instruments, Inc., Palo Alto, CA). Corrections were made for non-enzymic hydrolysis of substrate.\nEnzyme Buffer: 6.90 g (50 mmol) NaH2 PO4.H2 O+[…] (0.25 mmol) 5,5'-dithiobis-(2-nitrobenzoic acid). The reagents were dissolved in Milli-Q purified distilled water, titrated to pH 7.2 with 1N NaOH, and diluted to one liter with water.\nSubstrate: 0.2476 g (0.780 mmol) S-butyrylthiocholine iodide (BTC). The substrate was dissolved in 5 ml of Milli-Q purified distilled water. [BTC]=156 mM.\nInto a 1-cm pathlength cuvette was placed 3.0 ml of enzyme buffer. At least 10 min. was allowed for temperature equilibration. A 100 μl aliquot of substrate was added to the cuvette, the solution was mixed and about 3 min. was allowed for determination of the non-enzymic rate of substrate hydrolysis before the enzymic reaction was initiated by addition of 25 μl of plasma. The increase in absorbance at 405 nm was measured vs. a blank containing enzyme buffer.\nInto a 1-cm pathlength cuvette was placed 3.0 ml of enzyme buffer and 100 μl of substrate. The solution was mixed and about 10 min. was allowed for temperature equilibration. The reaction was initiated by addition of 25 μl of plasma. The increase in absorbance at 405 nm was measured vs. a blank containing enzyme buffer and substrate. No additional correction for non-enzymic substrate hydrolysis was necessary.\nA 1:15 mixture of cholesterol:corn oil was prepared by adding 25 g of USP cholesterol (Sigma Chemical Company, St. Louis, MO) to 375 g of corn oil (Mazola, Best Foods, CPC International, Inc., Englewood Cliffs, NJ). The mixture was stirred, sonicated, and heated in a hot water bath until the cholesterol completely dissolved. It was necessary to keep the mixture warm (50°-60° C.) in order to prevent congealing.\nBatches of feed were prepared by adding 160 g of the cholesterol-corn oil solution to 840 g of Purina Rabbit Chow 5321. The pellets and lipid mixture were thoroughly mixed in a 2-liter or 3-liter Erlenmeyer flask to ensure uniform coating of the pellets. The feed was then stored at room temperature until needed. […]"}, "acetylcholinesterase": {"molecular_target": "T1, acetylcholinesterase (Homo sapiens, UniProt P22303)", "T1 construct": "The supernatant (lysed RBC's) was stored frozen; from tissue; host or cells: lysed human red blood cells (supernatant of hypotonic lysis)", "T1 sequence (P22303 other isoform, or with tags, fused parts or gaps)": "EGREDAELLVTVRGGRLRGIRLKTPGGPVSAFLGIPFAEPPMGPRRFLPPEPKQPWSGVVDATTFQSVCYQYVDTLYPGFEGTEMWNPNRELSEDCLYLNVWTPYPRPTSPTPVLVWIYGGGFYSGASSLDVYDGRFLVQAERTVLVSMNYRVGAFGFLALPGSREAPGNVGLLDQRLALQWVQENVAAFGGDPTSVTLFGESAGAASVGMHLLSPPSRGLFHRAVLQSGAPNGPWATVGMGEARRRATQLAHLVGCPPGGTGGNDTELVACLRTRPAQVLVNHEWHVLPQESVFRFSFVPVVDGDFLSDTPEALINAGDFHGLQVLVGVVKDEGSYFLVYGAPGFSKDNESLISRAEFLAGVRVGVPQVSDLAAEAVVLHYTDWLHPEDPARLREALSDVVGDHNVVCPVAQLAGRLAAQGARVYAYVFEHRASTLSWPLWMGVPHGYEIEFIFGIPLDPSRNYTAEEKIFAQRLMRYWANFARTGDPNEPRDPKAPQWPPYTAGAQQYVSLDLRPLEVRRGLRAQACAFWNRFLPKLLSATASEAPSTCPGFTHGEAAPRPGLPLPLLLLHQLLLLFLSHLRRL", "assay": "Inhibition of acetylcholinesterase (AChE) activity of lysed human red blood cells (Test Method 1)", "assay_type": "biochemical", "conditions": "60 min preincubation", "description": "The following method was used to determine the relative inhibition of pseudocholinesterase and acetylcholinesterase by compounds of the present invention.\nLysed Red Blood Cells (RBC's) (Source of Acetylcholinesterase Enzyme)\nHuman blood which was collected in EDTA treated tubes was centrifuged at 1500×g for 10 min. at 4° C. One volume of chilled 0.9% saline solution was gently mixed with one volume of packed RBC's. One volume of this suspension was then washed three times with ten volumes of chilled 0.9% saline solution (4° C.). Each wash was centrifuged at 1500×g for 10 min. at 4° C. and supernatant was discarded. After the last wash the supernatant was replaced with deionized, distilled water (treated by Milli-Q apparatus, Millipore Corp., Bedford, MA) (4° C.). After 15 min. at 4° C. the suspension was centrifuged at 1500×g for 10 min. at 4° C. The supernatant (lysed RBC's) was stored frozen at -20° C. until use.\nThe buffer/chromogen solution was 0.25 mM 5,5'-dithiobis-[2-nitrobenzoic acid] (chromogen), 50 mM phosphate buffer, pH 7.2. In making up the buffer/chromogen solution and to keep it as colorless as possible, the phosphate buffer was first adjusted to pH 7.1 with NaOH; the chromogen was then added and dissolved; the pH was adjusted to 7.2; and the final volume was adjusted with addition of Milli-Q water. 5,5'-dithiobis-(2-nitrobenzoic acid) was obtained from Sigma Chemicals, St. Louis, MO.\nThe substrate solution for the pseudocholinesterase assay was 156 mM S-butyrylthiocholine iodide, and the substrate solution for the acetylcholinesterase assay was 156 mM S-acetylthiocholine iodide. Both substrate compounds were obtained from Sigma Chemicals.\nTest Compound Stock Solutions\nSolutions of all test compounds were made up at 2 μM, 20 μM, and 200 μM concentrations (in 0.9% saline solution) except as noted where lower concentrations were necessary because of decreased solubility of the compound in saline solution.\nAcetylcholinesterase (AChE) Assay\nThe acetylcholinesterase assay was performed identically to the pseudocholinesterase assay with the following exceptions. The concentrations of the stock solutions of test compounds were 20 μM and 200 μM, instead of 2 μM and 20 μM, and the substrate solution was 156 mM S-acetylthiocholine iodide instead of S-butyrylthiocholine iodide. The lysed RBC's/test compound solution was incubated for 0 and 60 minutes instead of 0 and 30 minutes before being added to the cuvette containing the buffer/chromogen/substrate solution. From a plot of net absorbance versus time there was an initial period before the curve reached a steady linear rate. From this linear portion of the curve a rate of absorbance change per minute was calculated.\nEach compound was tested for its ability to inhibit plasma pseudocholinesterase activity and acetylcholinesterase activity. Because of variation in the time points in the linear portion of the curve, inhibition values below 10-15% and higher than 85-90% are nearly indistinguishable from 0% and 100%, respectively."}}}
{"smiles": "NP(N)(=O)NC(=O)c1ccc(F)cc1", "note": "[Test Compound 4, N-(diaminophosphinyl)-4-fluorobenzamide]", "values": [{"measurement": "% PChE Inhibition (Compared to Control)", "setting": "pseudocholinesterase; day 1", "value": 51.6, "unit": "%"}, {"measurement": "% PChE Inhibition (Compared to Control)", "setting": "pseudocholinesterase; day 3", "value": 45.0, "unit": "%"}, {"measurement": "% PChE Inhibition (Compared to Control)", "setting": "pseudocholinesterase; day 7", "value": 58.6, "unit": "%"}, {"measurement": "% PChE Inhibition (Compared to Control)", "setting": "pseudocholinesterase; day 10", "value": 65.0, "unit": "%"}, {"measurement": "% PChE Inhibition (Compared to Control)", "setting": "pseudocholinesterase; day 14", "value": 69.0, "unit": "%"}, {"measurement": "plasma pseudocholinesterase activity vs saline-treated control", "setting": "pseudocholinesterase; high cholesterol diet, result in words", "value": "substantially lower plasma pseudocholinesterase activity"}, {"measurement": "inhibition at 10 µM", "setting": "acetylcholinesterase; 10 μM", "value": 12.4, "unit": "%"}, {"measurement": "inhibition at 100 µM", "setting": "acetylcholinesterase; 100 μM", "value": 52.3, "unit": "%"}]}
